Measurements taken from patent US20060206946A1, “Method of disrupting heme transport in nematodes and of modelling and evaluating eukaryotic heme transport” (priority 2005, published 2006).

System: C. elegans wild-type N2 strain
Assay: Worm culture and growth assay in axenic CeHR/mCeHR liquid medium
Assay type: in vivo
Design: key to Growth 1.6 μM hemin / Growth 0.5 μM GaPP: + = wild type equivalent In growth; ND: No growth
Procedure: (D) Biphasic response of C. elegans cultured in the presence of increasing amounts of hemin chloride (μM). Equal numbers of synchronized L1 larvae were grown in 24-well plates in mCeHR medium for 9 days and quantified (worms/μl) by microscopy. Each data point represents the mean±SD from three separate experiments performed in triplicate.
(A) Aerobic growth of C. elegans in mCeFIR medium with 20 μM hemin supplemented with either gallium protoporphyrin IX (GaPP) or gallium salts. Synchronized L1 larvae were grown for 9 days in 24-well plates and quantified (worms/μl) by microscopy. Each data point represents the mean from a single experiment, and each experiment was performed in triplicate. Inset depicts the GaPP analysis at lower concentrations for clarity.
(B) Effect of heme on the cytotoxicity of GaPP. Synchronized L1 larvae were inoculated in 24-well plates containing mCeHR medium with either 0, 2, 4, or 6 μM GaPP and increasing hemin (μM). The number of worms per μl was measured on day 9 and the data are presented as mean±SD.
FIG. 9 depicts worm utilization of heme-iron under iron deprivation. Equal numbers of synchronized L1 larvae were grown in the presence of 4, 20, and 100 μM hemin, either in basal mCeHR medium (set 1), or basal medium lacking exogenous iron (set 2), or as set 2 with 1 μM of the iron chelator ferrozine (set 3), or as set 3 with 486 μM ferrous ammonium sulfate (set 4). These values of ferrozine and iron were empirically determined by performing dose-response experiments and analyzing worm growth. The number of worms per μl was measured on day 9 and the data presented as mean±SD performed in triplicate. P<0.001 between sets 1 and 3.
To qualitatively and quantitatively determine the heme requirement of C. elegans, we assessed growth at various heme concentrations. Equal numbers of L1 larvae were inoculated in CeHR medium with either no cytochrome c and hemin, or with cytochrome c and increasing amounts of hemin (FIG. 4A). The effect of hemin became apparent within 48 hours and by 9 days, the heme-deplete worms were severely growth retarded at the L1/L2 stages. […] However, this stimulatory effect of heme was toxic to worms grown at heme concentrations >750 μM. To quantitatively assess the effect of heme on worms, we counted the number of live worms grown under different concentration of heme using DIC microscopy. […] On the basis of this association between heme and the growth and reproduction of C. elegans, we conclude that the biphasic nature of heme is likely due to the need for heme under heme-deprived conditions to perform essential metabolic functions, and the lethality of heme at high concentrations can be attributed to its cytotoxic activity.
Worm Culture and Growth Assays. Free-living worms were cultured in CeHR axenic liquid medium (Dr. Eric Clegg, Personal Communication). […] CeHR medium was modified (henceforth called mCeHR) to eliminate all sources of exogenously added heme; basal growth medium comprised 20 μM hemin chloride (Frontier Scientific, Logan, Utah) and 150 μM of ferrous ammonium sulfate (Sigma Chemicals). Worm strains were grown in mCeHR medium under aerobic conditions in tissue culture flasks at 20° C. ˜3.7×10^6 worms were routinely obtained after 3.5 to 4 days in a T75 flask with 30 ml basal medium from an initial inoculum of −1.5×10^5 worms. For initial culturing of worms in axenic media, three generations of worms were sequentially bleached (1.1% bleach/0.55 M NaOH) to eliminate any contaminating bacterial carryover from agar plates. In all dose-response experiments, worms were growth synchronized by treating the gravid hermaphrodite worms with bleach to dissolve adult worms. The eggs, resistant to bleach, were liberated from the carcasses and extensively washed with M9 buffer followed by overnight hatching in M9 buffer to synchronize growth. By harvesting at appropriate time intervals, synchronous larval stages and adult staged worms were collected for experimental manipulations. […]

Substance: hemin chloride
- growth delay compared to worms grown at 20 μM hemin (4 and 500 μM hemin): ~24 h
- effect on growth under iron deprivation (20 and 100 μM hemin, with ferrozine, P<0.001): attenuated the growth retarding effects of iron deprivation
- heme concentrations toxic to worms (CeHR medium): > 750 µM
- hemin concentration at which maximum growth was achieved (CeHR medium with cytochrome c, L1 larvae inoculum): 10 µM
- Growth 1.6 μM hemin (Control Wild-type (N2)): +
- Generation time (Days) 20 μM (Control Wild-type (N2), 20 μM hemin): 3.5 days
- brood size 20 μM (Control Wild-type (N2), 20 μM hemin, average in 24 well plates): 62.3
- Generation time (Days) 800 μM (Control Wild-type (N2), 800 μM hemin): >16 days
- sensitivity to heme in liquid medium versus heme plates (in vivo): 10 times
- hemin amount resulting in growth arrest at the L3 stage (mCeHR medium): ≥ 800 µM
- optimum concentration of hemin for growth (mCeHR medium, 9 days): 20 µM
